Results reported in patent US12721875B2, “Drug for treatment of breast cancer with antler and ginseng as sovereign drug and preparation method and application thereof” (Jilin University, priority 2024, dated 2026).

Tests used:
breast cancer = test: Clinical observation and typical clinical cases of breast cancer patients; format: in vivo, human; details: clinical case 1, Abemaciclib and Fulvestrant for 3 days
4T1 breast cancer cells = test: 4T1 triple-negative mice breast cancer model, second batch, DTX with or without medium dose preparation, 31 days; format: in vivo, BALB/c mice
Description: after the required amount of 4T1 breast cancer cells were cultured, the cells were resuspended in phosphate-buffered saline (PBS) after trypsin digestion and centrifugation, and the cells were counted and diluted to a cell concentration of 1×10^7 cells/mL. All mice were intraperitoneally injected with 50 mg/kg pentobarbital sodium and 0.5% lidocaine solution for infiltration anesthesia, under anesthesia, 0.1 mL cell suspension of each mouse was inoculated in the third pair of mammary fat pads on the left side, the cotton swab was pressed for a moment to avoid cell outflow after inoculation. During the inoculation process, the pipette blows the cell suspension to ensure uniform suspension.
experimental BALB/c mice were divided into 3 groups with 10 mice in each group. They were the PBS group, chemotherapy […] (DTX) group, and DTX+medium dose (0.85 mg/kg) group.
The mice were administered by gavage on the second day after tumor implantation, the DTX group was intraperitoneally injected with 0.2 mL of DTX, once a week. The DTX+medium dose group was intraperitoneally injected with DTX at the first and fourth weeks of inoculation and combined with the medium dose of Antler-Ginseng compound preparation. The tumor volume (L×W2×0.4) and body weight of mice were measured on the 7th day after inoculation. For a total of 31 days. Flow cytometry analysis: three mice in each group of PBS group and DTX+medium dose group were selected randomly for flow cytometry analysis of tumor tissue and spleen. All statistical analyses were performed by using GraphPad Prism 9.0, P<0.05 was considered statistically significant.
6. The Antler-Ginseng compound preparation reduces the course of chemotherapy and the frequency of medication, and the anti-tumor effect is better than the anti-tumor effect of single-agent chemotherapy. […]

increase of transaminase (liver function) (breast cancer) [times]	SMILES	body weight of the experimental animals (4T1 breast cancer cells; DTX once a week, combination with halved chemotherapy frequency plus medium dose preparation)	tumor volume compared with the PBS group (4T1 breast cancer cells; P<0.05)	tumor weight compared with the PBS group (4T1 breast cancer cells; P<0.05)
10	CCN1CCN(Cc2ccc(Nc3ncc(F)c(-c4cc(F)c5nc(C)n(C(C)C)c5c4)n3)nc2)CC1 [Abemaciclib]	–	–	–
–	CC(=O)O[C@@]12CO[C@@H]1C[C@H](O)[C@@]1(C)C(=O)[C@H](O)C3=C(C)[C@@H](OC(=O)[C@H](O)[C@@H](NC(=O)OC(C)(C)C)c4ccccc4)C[C@@](O)([C@@H](OC(=O)c4ccccc4)[C@H]21)C3(C)C [DTX, docetaxel]	significantly reduced	significantly lower	significantly lower
